Assays:
[1] = tested on: ABC-type DLBCL cell line TMD-8 cells; assay: In vivo effect on subcutaneously transplanted TMD-8 tumor in mice (Test Example 1); parameters: species or system NOD-SCID mouse; details: for TGI (%): 29 days after tumor inoculation
Experimental: ABC-type DLBCL cell line TMD-8 cells were suspended to 1×10^8 cells/mL using phosphate-buffered saline. 0.1 mL of the prepared cell suspension was subcutaneously transplanted to each NOD-SCID mouse (female, 6 weeks old). […] The major axis (mm) and minor axis (mm) of tumor were measured over time using an electronic digital caliper. […] Also, the body weights were measured over time using an automatic balance for small animals, and body weight change % was calculated according to calculation formula (5) shown below to study the influence of drug administration on the body weights. In addition, the results of the last body weight measurement were used in dose calculation. […] A: Average tumor volume of the compound-administered group on the date of assessment (*) B: Average tumor volume of the untreated control group on the date of assessment (*) *: The tumor volume was calculated according to ½×[Major axis of tumor]×[Minor axis of tumor]×[Minor axis of tumor].

[2] = Body weight change of TMD-8 tumor-bearing mice (Test Example 1); assay type: in vivo, NOD-SCID mouse
Experimental: ABC-type DLBCL cell line TMD-8 cells were suspended to 1×10^8 cells/mL using phosphate-buffered saline. 0.1 mL of the prepared cell suspension was subcutaneously transplanted to each NOD-SCID mouse (female, 6 weeks old). […] For a combined use group, 25 mg/kg or 50 mg/kg Compound A and 100 mg/kg or 200 mg/kg ibrutinib were orally administered sequentially by forced administration. […] The major axis (mm) and minor axis (mm) of tumor were measured over time using an electronic digital caliper. […] Also, the body weights were measured over time using an automatic balance for small animals, and body weight change % was calculated according to calculation formula (5) shown below to study the influence of drug administration on the body weights. In addition, the results of the last body weight measurement were used in dose calculation. […] *: The tumor volume was calculated according to ½×[Major axis of tumor]×[Minor axis of tumor]×[Minor axis of tumor]. […] BWn: Body weight on day n BWs: Body weight on the start day of administration

[3] = Ibrutinib 100 mg/kg oral, day 18 after tumor inoculation (first administration)
[4] = Ibrutinib 100 mg/kg oral, day 20 after tumor inoculation
[5] = Ibrutinib 100 mg/kg oral, day 22 after tumor inoculation
[6] = Ibrutinib 100 mg/kg oral, day 25 after tumor inoculation
[7] = Ibrutinib 100 mg/kg oral, day 27 after tumor inoculation
[8] = Ibrutinib 100 mg/kg oral, day 29 after tumor inoculation
[9] = Ibrutinib 200 mg/kg oral, day 18 after tumor inoculation (first administration)
[10] = Ibrutinib 200 mg/kg oral, day 20 after tumor inoculation
[11] = Ibrutinib 200 mg/kg oral, day 22 after tumor inoculation
[12] = Ibrutinib 200 mg/kg oral, day 25 after tumor inoculation
[13] = Ibrutinib 200 mg/kg oral, day 27 after tumor inoculation
[14] = Ibrutinib 200 mg/kg oral, day 29 after tumor inoculation
[15] = Compound A 25 mg/kg oral, day 18 after tumor inoculation (first administration)
[16] = Compound A 25 mg/kg oral, day 20 after tumor inoculation
[17] = Compound A 25 mg/kg oral, day 22 after tumor inoculation
[18] = Compound A 25 mg/kg oral, day 25 after tumor inoculation
[19] = Compound A 25 mg/kg oral, day 27 after tumor inoculation
[20] = Compound A 25 mg/kg oral, day 29 after tumor inoculation
[21] = Compound A 50 mg/kg oral, day 18 after tumor inoculation (first administration)
[22] = Compound A 50 mg/kg oral, day 20 after tumor inoculation
[23] = Compound A 50 mg/kg oral, day 22 after tumor inoculation
[24] = Compound A 50 mg/kg oral, day 25 after tumor inoculation
[25] = Compound A 50 mg/kg oral, day 27 after tumor inoculation
[26] = Compound A 50 mg/kg oral, day 29 after tumor inoculation

Compound: C=CC(=O)N1CCC[C@@H](n2nc(-c3ccc(Oc4ccccc4)cc3)c3c(N)ncnc32)C1 [Ibrutinib, (R)-1-(3-(4-amino-3-(4-phenoxyphenyl)-1H-pyrazolo[3,4-d]pyrimidin-1-yl)piperidin-1-yl)prop-2-en-1-one]
- TGI (%) ([1]; Ibrutinib 100 mg/kg oral): 58%
- Estimated tumor volume, average [1, 3]: 115 mm^3
- Estimated tumor volume, average [1, 4]: 112 mm^3
- Estimated tumor volume, average [1, 5]: 127 mm^3
- Estimated tumor volume, average [1, 6]: 157 mm^3
- Estimated tumor volume, average [1, 7]: 185 mm^3
- Estimated tumor volume, average [1, 8]: 213 mm^3
- TGI (%) ([1]; Ibrutinib 200 mg/kg oral): 67%
- Estimated tumor volume, average [1, 9]: 119 mm^3
- Estimated tumor volume, average [1, 10]: 120 mm^3
- Estimated tumor volume, average [1, 11]: 115 mm^3
- Estimated tumor volume, average [1, 12]: 149 mm^3
- Estimated tumor volume, average [1, 13]: 153 mm^3
- Estimated tumor volume, average [1, 14]: 166 mm^3
- Body weight change (%), average [2, 3]: 0.0%
- Body weight change (%), average [2, 4]: −0.4%
- Body weight change (%), average [2, 5]: −1.1%
- Body weight change (%), average [2, 6]: −0.2%
- Body weight change (%), average [2, 7]: 0.8%
- Body weight change (%), average [2, 8]: −0.1%
- Body weight change (%), average [2, 9]: 0.0%
- Body weight change (%), average [2, 10]: −1.5%
- Body weight change (%), average [2, 11]: −1.2%
- Body weight change (%), average [2, 12]: 0.2%
- Body weight change (%), average [2, 13]: −0.4%
- Body weight change (%), average [2, 14]: −1.6%

Compound: CC1(C)CCC2(CC1)N[C@@H](C(=O)N[C@@H]1CC[C@@H](C(N)=O)OC1)[C@H](c1ccnc(Cl)c1F)[C@]21C(=O)Nc2cc(Cl)ccc21.Cc1ccc(S(=O)(=O)O)cc1 [Compound A, (3′R,4′S,5′R)—N-[(3R,6S)-6-carbamoyltetrahydro-2H-pyran-3-yl]-6″-chloro-4′-(2-chloro-3-fluoropyridin-4-yl)-4,4-dimethyl-2″-oxo-1″,2″-dihydrodispiro[cyclohexane-1,2′-pyrrolidine-3′,3″-indole]-5′-carboxamide p-toluenesulfonate]
- TGI (%) ([1]; Compound A 25 mg/kg oral): 45%
- Estimated tumor volume, average [1, 15]: 117 mm^3
- Estimated tumor volume, average [1, 16]: 135 mm^3
- Estimated tumor volume, average [1, 17]: 156 mm^3
- Estimated tumor volume, average [1, 18]: 201 mm^3
- Estimated tumor volume, average [1, 19]: 212 mm^3
- Estimated tumor volume, average [1, 20]: 282 mm^3
- TGI (%) ([1]; Compound A 50 mg/kg oral): 58%
- Estimated tumor volume, average [1, 21]: 115 mm^3
- Estimated tumor volume, average [1, 22]: 118 mm^3
- Estimated tumor volume, average [1, 23]: 108 mm^3
- Estimated tumor volume, average [1, 24]: 143 mm^3
- Estimated tumor volume, average [1, 25]: 162 mm^3
- Estimated tumor volume, average [1, 26]: 216 mm^3
- Body weight change (%), average [2, 15]: 0.0%
- Body weight change (%), average [2, 16]: 2.1%
- Body weight change (%), average [2, 17]: 1.8%
- Body weight change (%), average [2, 18]: 1.6%
- Body weight change (%), average [2, 19]: 1.3%
- Body weight change (%), average [2, 20]: 0.1%
- Body weight change (%), average [2, 21]: 0.0%
- Body weight change (%), average [2, 22]: −0.8%
- Body weight change (%), average [2, 23]: −1.7%
- Body weight change (%), average [2, 24]: −2.7%
- Body weight change (%), average [2, 25]: −1.0%
- Body weight change (%), average [2, 26]: −1.7%

From patent publication US10485794B2, “Treatment method by combined use of MDM2 inhibitor and BTK inhibitor” (DAIICHI SANKYO COMPANY, LIMITED, priority 2015, dated 2019)
